According to ChEMBL document CHEMBL3751697, “Enantiomeric 3-deaza-1',6'-isoneplanocin and its 3-bromo analogue: Synthesis by the Ullmann reaction and their antiviral properties” (Bioorg Med Chem Lett, 2016):
Activity calls are given as the source filed them. The rule behind the calls is not given here.

Columns and labels:
Ebolavirus [1] = assay: Antiviral activity against Zaire ebolavirus infected in human HepG2 cells; assay type: functional, cell-based; conditions: Orthoebolavirus
[2] = Cytotoxicity against human HepG2 cells; assay type: cell-based
[3] = Selectivity index, ratio of CC50 for human HepG2 cells to EC50 for Zaire ebolavirus; assay type: toxicity, cell-based; conditions: read-out: Ratio CC50/EC50
Ebolavirus [4] = assay: Antiviral activity against Zaire ebolavirus infected in African monkey Vero cells; assay type: functional, cell-based; conditions: Orthoebolavirus
[5] = Cytotoxicity against African monkey Vero cells; assay type: cell-based; conditions: chlorocebus sabaeus
[6] = Selectivity index, ratio of CC50 for African monkey Vero cells to EC50 for Zaire ebolavirus; assay type: toxicity, cell-based; conditions: read-out: Ratio CC50/EC50
Human betaherpesvirus 5 = assay: Antiviral activity against Human cytomegalovirus; assay type: functional, organism-based
Measles morbillivirus = assay: Antiviral activity against Measles virus; assay type: functional, organism-based
Rift Valley fever virus = assay: Antiviral activity against Rift Valley fever virus; assay type: functional, organism-based
Tacaribe virus = assay: Antiviral activity against Tacaribe virus; assay type: functional, organism-based; conditions: Mammarenavirus tacaribeense
Dengue virus = assay: Antiviral activity against Dengue virus; assay type: functional, organism-based
Yellow fever virus = assay: Antiviral activity against Yellow fever virus; assay type: functional, organism-based
Hepatitis C virus = assay: Antiviral activity against Hepatitis C virus; assay type: functional, organism-based; conditions: Hepacivirus hominis
Chikungunya virus = assay: Antiviral activity against Chikungunya virus; assay type: functional
[7] = system: Japanese encephalitis virus; assay: Antiviral activity against Japanese encephalitis virus; assay type: functional, organism-based
Nipah virus = assay: Antiviral activity against Nipah virus; assay type: functional, organism-based; conditions: Henipavirus nipahense
Hepatitis B virus = assay: Antiviral activity against Hepatitis B virus; assay type: functional, organism-based
Norovirus = assay: Antiviral activity against Norovirus; assay type: functional
Enterovirus C = assay: Antiviral activity against Poliovirus; assay type: functional, organism-based
Punta Toro virus = assay: Antiviral activity against Punta Toro virus; assay type: functional, organism-based
[8] = system: Venezuelan equine encephalitis virus; assay: Antiviral activity against Venezuelan equine encephalitis virus; assay type: functional, organism-based
Vaccinia virus = assay: Antiviral activity against Vaccinia virus; assay type: functional, organism-based; conditions: Orthopoxvirus vaccinia
West Nile virus = assay: Antiviral activity against West Nile virus; assay type: functional, organism-based
Lyssavirus rabies = assay: Antiviral activity against Rabies virus; assay type: functional
Monkeypox virus = assay: Antiviral activity against Monkeypox virus; assay type: functional, organism-based

| Compound | EC50 (Ebolavirus [1]) [µM] | EC90 (Ebolavirus [1]) [µM] | CC50 [2] [µM] | EC50 (Ebolavirus [4]) [µM] | CC50 [5] [µM] | selectivity ratio [6] | EC50 (Human betaherpesvirus 5) [µM] | EC50 (Measles morbillivirus) [µM] | Activity (Rift Valley fever virus) | Activity (Tacaribe virus) | Activity (Dengue virus) | Activity (Yellow fever virus) | Activity (Hepatitis C virus) | Activity (Chikungunya virus) | Activity [7] | Activity (Nipah virus) | Activity (Enterovirus C) | Activity (Punta Toro virus) | Activity [8] | Activity (Vaccinia virus) | also measured |
| --- | --- | --- | --- | --- | --- | --- | --- | --- | --- | --- | --- | --- | --- | --- | --- | --- | --- | --- | --- | --- | --- |
| Nc1ncc(Br)c2c1ncn2[C@@H]1C=C(CO)[C@@H](O)[C@H]1O | < 0.32 | 3.02 | 21.1 | – | – | – | – | – | – | – | – | – | – | – | – | – | – | – | – | – | selectivity ratio [3]: > 67 |
| Nc1ncc(Br)c2c1ncn2C1=C[C@H](CO)[C@@H](O)[C@H]1O | – | – | – | < 0.1 | > 100 | > 1000 | < 0.1 | < 0.29 | inactive | inactive | inactive | inactive | inactive | inactive | inactive | inactive | – | – | – | – | – |
| Nc1ncc(Br)c2c1ncn2C1=C[C@@H](CO)[C@H](O)[C@@H]1O | – | – | – | 3.51 | > 100 | > 28.5 | < 0.1 | < 0.29 | inactive | inactive | inactive | inactive | inactive | inactive | inactive | inactive | – | – | – | – | EC50 (Hepatitis B virus): 3.25 µM; EC50 (Norovirus): 1.3 µM |
| Nc1nccc2c1ncn2C1=C[C@H](CO)[C@@H](O)[C@H]1O | < 0.32 | 74.1 | > 100 | – | – | – | < 0.1 | < 0.38 | – | – | – | – | – | – | – | – | inactive | inactive | inactive | inactive | Activity (West Nile virus): inactive; Activity (Lyssavirus rabies): inactive; Activity (Monkeypox virus): inactive |
| Nc1nccc2c1ncn2C1=C[C@@H](CO)[C@H](O)[C@@H]1O | < 0.32 | < 0.32 | > 100 | – | – | – | < 0.1 | – | – | – | – | – | – | – | – | – | inactive | inactive | inactive | inactive | Activity (Measles morbillivirus): inactive; Activity (West Nile virus): inactive; Activity (Lyssavirus rabies): inactive; Activity (Monkeypox virus): inactive |
